# Literature values in patent US9173403B2, “Parasiticidal compositions comprising multiple active agents, methods and uses thereof” (MERIAL, INC., priority 2010, dated 2015).
# Settings: beagle dogs; spot-on administration; 14C radiolabeled drug
structure (smiles),measurement,value
"N#Cc1nn(-c2c(Cl)cc(C(F)(F)F)cc2Cl)c(N)c1[S+]([O-])C(F)(F)F (stereo not shown) [fipronil, 5-amino-3-cyano-1-(2,6-dichloro-4-trifluoromethylphenyl)-4-trifluoromethylsulfinylpyrazole]",time persistently detected in the whole skin after treatment,up to 56 days
